Experimental findings from BindingDB's records for doi:10.7270/Q2H993NJ (University of Pittsburgh, 2010) are described below.

Values joined by “and” are separate entries in the source; they are usually repeats but may differ in a detail not shown here. Equal values may be shown once.

As a reminder, the IC50 is the point on the concentration scale where inhibition reaches its midpoint.

For the test, the target named is Furin (Homo sapiens, UniProt P09958). Kind of test: furin inhibitor potency, dose response, biochemical, fluorescence intensity, IC50 (AID 463182).
Furin, sequence (P09958 whole entry): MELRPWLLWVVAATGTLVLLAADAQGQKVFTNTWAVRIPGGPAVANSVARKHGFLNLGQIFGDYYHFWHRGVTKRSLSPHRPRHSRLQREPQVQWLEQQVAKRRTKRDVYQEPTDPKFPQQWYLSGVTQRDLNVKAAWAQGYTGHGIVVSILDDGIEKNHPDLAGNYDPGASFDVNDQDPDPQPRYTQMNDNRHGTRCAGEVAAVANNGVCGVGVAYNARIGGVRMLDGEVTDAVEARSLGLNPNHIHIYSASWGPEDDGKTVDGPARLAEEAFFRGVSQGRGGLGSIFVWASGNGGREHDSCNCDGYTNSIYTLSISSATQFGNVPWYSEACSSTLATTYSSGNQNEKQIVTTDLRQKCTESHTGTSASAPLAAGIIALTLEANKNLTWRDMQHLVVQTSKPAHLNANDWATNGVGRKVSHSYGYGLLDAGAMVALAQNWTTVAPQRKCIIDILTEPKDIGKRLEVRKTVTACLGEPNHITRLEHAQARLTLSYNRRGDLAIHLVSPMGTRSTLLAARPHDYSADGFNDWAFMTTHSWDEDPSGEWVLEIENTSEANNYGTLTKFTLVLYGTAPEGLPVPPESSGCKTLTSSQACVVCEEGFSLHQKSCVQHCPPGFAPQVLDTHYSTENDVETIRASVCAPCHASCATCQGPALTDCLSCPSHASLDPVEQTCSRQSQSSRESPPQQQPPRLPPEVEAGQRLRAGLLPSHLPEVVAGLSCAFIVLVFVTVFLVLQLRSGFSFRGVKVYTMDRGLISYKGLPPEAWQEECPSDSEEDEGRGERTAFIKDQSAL
Take `Cc1ccccc1-n1c(O)c(C=Nc2ccc(N(C)C)cc2)c(=O)[nH]c1=O` [SMR000102641]: the 50% inhibitory concentration (IC50) was > 50 µM.

With `CCCOP(=O)(c1ccc(N(C)C)cc1)C(Nc1ccccc1)c1ccc(N(C)C)cc1` (centres undefined), the IC50 is > 50 µM. For the molecule `Cc1cccc(NC=C2C(=O)CC(C)(C)CC2=O)n1`, the IC50 was > 50 µM. For `CC1(C)CC(=O)C(=CNn2cnc3ccccc3c2=O)C(=O)C1` [5,5-Dimethyl-2-[(4-oxo-4H-quinazolin-3-ylamino)-methylene]-cyclohexane-1,3-dione], the IC50 is > 50 µM.

Regarding `CC1(C)CC(=O)C(=CNc2cccnc2)C(=O)C1`, the half-maximal inhibitory concentration (IC50) was > 50 µM.

On to `Cc1cccc(C=C2SC(NN=C3CC4CCC3(C)C4(C)C)=NC2=O)c1` (centres undefined) [SMR000159419], for which the IC50 is > 50 µM. On to `Cc1cccc(-n2c(O)c(C=CC=Nc3ccccc3)c(=O)[nH]c2=O)c1` [(5Z)-1-(3-methylphenyl)-5-[(E)-3-phenylazanylprop-2-enylidene]-1,3-diazinane-2,4,6-trione], for which the IC50 was > 50 µM.

On to `CSc1nc(N)c(N=Nc2ccc([As](=O)(O)O)cc2)c(O)n1` [[4-[(2Z)-2-(4-azanyl-2-methylsulfanyl-6-oxidanylidene-pyrimidin-5-ylidene)hydrazinyl]phenyl]arsonic acid], for which the 50% inhibitory concentration (IC50) is > 50 µM. As for `CCN1CCS/C1=C\C=C\C1=[N+](CC)CCS1` [3-ethyl-2-[(E,3E)-3-(3-ethylthiazolidin-2-ylidene)prop-1-enyl]-2-thiazolin-3-ium;iodide], the IC50 is 33.8 µM and 31.5 µM.
